Results from patent publication US20100278896A1, “SOLID COMPOSITIONS” (UCL BUSINESS PLC, priority 2007, published 2010).
Blank lines part the entries; values can stand above or below the compound they belong to.

Legend:
[1] = Comparison of irradiated and non-irradiated product (gamma radiation, HPLC)
[2] = system: Human Tenon's fibroblasts (HTF); conditions: cited from earlier work; for contraction of HTF populated collagen gels: dose-dependent, Daniels et al., 2003
[3] = system: rabbit bleb after trabeculectomy; conditions: 17 injections in DMSO, 30 days, vs DMSO only control; cited from earlier work
[4] = Tablet release in flow rig, pH 7.6 aqueous solution, 37° C., flow rate 2 μl/min, HPLC; assay type: physicochemical
Description: To obtain some indication of release kinetics, flow rigs of 50-200 μl capacity were used to model the bleb. An Ilomastat tablet (one tablet per rig) was placed into the flow chamber. Two tubes are connected to each rig: one was connected to a peristaltic pump to introduce an aqueous solution and the other tube allowed the removal of the solution out of the rig. Flow rates were used to model the flow of the aqueous solution into and out from the subconjunctival space to the scleral veins.
A range of flow rates was used in the rig experiments; however, in most of the experiments a flow rate of 2 μl/min was used to simulate the aqueous flow rate in the bleb. To further simulate the actual conditions in the eye, the aqueous solution used was maintained at pH 7.4-7.6 (as this is the pH of normal human aqueous humor) and the temperature was maintained at 37° C. The aqueous solution that was prepared using Oxoid® Phosphate Buffered Saline Tablets (one tablet for every 100 ml of de-ionized water). The PBS tablets were dissolved in de-ionized water and the pH was adjusted to 7.6. The aqueous solution was kept at 37° C.
The mobile phase was prepared as follows. […] When the pH was adjusted, de-ionized water was added to make the buffer volume of 1000 ml. Aliquots of each sample (0.1 ml) were transferred to HPLC vials that were then placed in the HPLC auto-sampler. […] Three injections (10 μl each) for each time point were evaluated. A computer was connected with the UV detector and with the use of the programme Chrom+, the peak area was analyzed to determine the amount of Ilomastat. […] The average of the three measurements was used to determine the amount of Ilomastat. […]
As indicated above, a tablet of solid 5-FU was fabricated using the same technique as described above. The dissolution rate of the tablet was then determined using the same rig as described above.
Each tablet was placed into the rig as described above and liquid samples analysed by HPLC and concentration of 5-FU was determined using the calibration curve. […]

[5] = Dissolution of Ilomastat in pH 7.6 aqueous solution without DMSO; assay type: physicochemical
Description: The curve was created as follows. […] The stock solution was then diluted in individual containers to give six other solutions with the following concentrations: 80 μM, 60 μM, 40 μM, 20 μM, 10 μM and 5 μM. Each solution was then evaluated three times by HPLC and the absorbance was determined.
A standard tablet punch and die and a press with an applied a pressure of five bars were used.

[6] = Engalytcheff et al. 2004; cited from earlier work
[7] = system: Human Tenon's fibroblasts (HTF); test: Contraction of HTF collagen I gels (in vitro contraction model); assay type: cell-based; conditions: for Contraction (%) of HTF collagen I gels, Average / Contraction (%) of HTF collagen I gels, Group 1 / Contraction (%) of HTF collagen I gels, Group 2 / Contraction (%) of HTF collagen I gels, Group 3 / Contraction (%) of HTF collagen I gels, Group 4: 2nd in vitro experiment; for Contraction (%) of HTF collagen I gels: media without DMSO
Description: Human Tenon's fibroblasts (HTF) were used for in vitro cultures. These cells are involved in subconjunctival scarring. The process of HTF isolation and proliferation was performed by using 0.5 cm^3 tissue explants from donor eyes obtained from Moorfields Hospital Eye Bank under the Tenets of the Declaration of Helsinki (1989). Explants of 0.5 cm^3 were kept for two hours in the bottom of 25 cm^3 flasks, with a coverslip placed over them. Each flask contained 5 ml of normal culture medium consisting of Dulbecco's modified Eagle's Medium (DMEM) with 10% fetal calf serum, 2 mM L-glutamine, 100 U/ml penicillin, […] gentamicin, 100 μg/ml streptomycin and 0.25 μg/ml amphotericin. The flasks were placed in incubators at 37° C. and 5% humidified CO2 in air. The culture medium was changed every 3 days and when they became confluent, usually within one month, they were passaged into new flasks for direct experimental use or were stored in liquid nitrogen.
After the HTFs reached confluence, the culture medium was aspirated and the monolayer was washed with 1 ml of trypsin 1× (Gibco) and the trypsin was quickly aspirated for about 15 seconds. Next, 2 ml of trypsin 1× (Gibco) were added to each flask and HTFs were detached from the flasks by incubation for 2 minutes at 37° C. and 5% humidified CO2 in air. After confirming by phase contrast microscopy using a Leica microscope with ×10 magnification that the cells had been detached from the bottom of the flask and that they had obtained a round shape, 2 ml of cell culture medium were added to neutralise the trypsinisation. The cell suspension was transferred to a 15 ml centrifuge tube (STARLAB GMBH) and was centrifuged at 1600 rpm for 5 minutes. The cell pellet was then resuspended in 10 ml of cell culture medium and was divided into 4 different 75 cm^3 flasks (1:4 expansion). In each flask 7.5 ml of cell culture medium were added. Flasks were placed in incubators at 37° C. and 5% humidified CO2 in air and the culture media was changed every three days. The time that was required from passage to passage in order to reach confluence was 1 week on average.
With a Neubauer plate, 6.2×10^4 HTF were counted and then were resuspended in 170 μl FBS in a 50 ml universal tube. Concentrated medium (160 μl) was added (stock solution consisting of 3.5 ml DMEM (×10 stock), 0.35 ml glutamine (2 mM stock) and 0.9 ml sodium bicarbonate (7.5% stock). 830 μl of First Link type I collagen solution collagen (stock 2.2 mg/ml in 0.6% acetic acid) were then added and the solution was mixed by swirling to avoid air bubbles. Sterile 1M NaOH (75-80 μl) was rapidly added to change the acidic pH of the solution. This caused the solution to turn a pink colour without reverting back to yellow. Quickly 150 μl collagen gel solution was cast into the wells of Mattek dishes making sure to cast the gel to the edges of the central groove using the pipette tip. Creation of air bubbles when ejecting the gel from the tip should be avoided. If air bubbles were formed, they were aspirated out. Usually, from a 1.2 ml gel suspension, 6 gels can easily be cast. Following this process, the wells of Makket dishes with the gels were placed in incubator to set for at least 10-15 min (up to 30 mins). Gels were detached from the edges of the central groove using yellow tips and excess unpolymerised solution was aspirated off. Two milliliters of cell culture medium were added and the dishes were placed in incubators at 37° C. and 5% humidified CO2 in air; the medium was replaced every 3 days.
Generally solid Ilomastat is diluted into DMSO before being added into the media, however in this experiment Ilomastat could be directly dissolved in the normal media without DMSO. […] The concentration of both samples was then confirmed by HPLC.
To compare with irradiated Ilomastat, experiments were conducted with three different treatment groups of collagen gels. Each treatment group had 3 collagen I gels with HTFs. […]

SMILES: CNC(=O)[C@H](Cc1c[nH]c2ccccc12)NC(=O)[C@@H](CC(=O)NO)CC(C)C [Ilomastat, N-[(2R)-2-(hydroxamidocarbonylmethyl)-4-methylpentanoyl]-L tryptophan methylamide]
- degradation caused by gamma radiation ([1]; 25 KGys dose): not significant
- concentrations inhibiting in vitro contraction in collagen I gels in a dose dependent manner ([2]; Daniels et al. 2003, WO 95/24921): 10 to 100 nM
- contraction of HTF populated collagen gels [2]: inhibition of the contraction of the gels
- bleb survival [3]: prolong significantly the bleb survival
- time for which an MMP inhibitory concentration of 10 μM is maintained ([4]; solid dosage form of about 2 to 5 mg): at least 30 days
- theoretical maximum dissolution in the aqueous solution [5]: about 100 μM

SMILES: C[C@H](CS)C(=O)N1CCC[C@H]1C(=O)O [Captopril]
- degradation caused from irradiation [6]: not significant

SMILES: CNC(=O)[C@@H](NC(=O)[C@H](CC(C)C)NC(=O)[C@@H](S)CCN1C(=O)N(C)C(C)(C)C1=O)C(C)(C)C [BMS-275291]
- contraction of HTF populated collagen gels [2]: inhibition of the contraction of the gels

SMILES: CNC(=O)[C@H](Cc1c[nH]c2ccccc12)NC(=O)[C@@H](CC(=O)NO)CC(C)C [Non-Irradiated Ilomastat with DMSO]
- Contraction (%) of HTF collagen I gels, Average ([7]; Day 1): 19.35%
- Contraction (%) of HTF collagen I gels, Group 1 ([7]; Day 1): 13.03%
- Contraction (%) of HTF collagen I gels, Group 2 ([7]; Day 1): 19.45%
- Contraction (%) of HTF collagen I gels, Group 3 ([7]; Day 1): 20.69%
- Contraction (%) of HTF collagen I gels, Group 4 ([7]; Day 1): 24.23%
- Contraction (%) of HTF collagen I gels, Average ([7]; Day 2): 22.63%
- Contraction (%) of HTF collagen I gels, Group 1 ([7]; Day 2): 19.75%
- Contraction (%) of HTF collagen I gels, Group 2 ([7]; Day 2): 22.77%
- Contraction (%) of HTF collagen I gels, Group 3 ([7]; Day 2): 21.37%
- Contraction (%) of HTF collagen I gels, Group 4 ([7]; Day 2): 26.63%
- Contraction (%) of HTF collagen I gels, Average ([7]; Day 3): 23.325%
- Contraction (%) of HTF collagen I gels, Group 1 ([7]; Day 3): 20.44%
- Contraction (%) of HTF collagen I gels, Group 2 ([7]; Day 3): 24.14%
- Contraction (%) of HTF collagen I gels, Group 3 ([7]; Day 3): 21.55%
- Contraction (%) of HTF collagen I gels, Group 4 ([7]; Day 3): 27.17%
- Contraction (%) of HTF collagen I gels, Average ([7]; Day 4): 24.14%
- Contraction (%) of HTF collagen I gels, Group 1 ([7]; Day 4): 21.15%
- Contraction (%) of HTF collagen I gels, Group 2 ([7]; Day 4): 25.19%
- Contraction (%) of HTF collagen I gels, Group 3 ([7]; Day 4): 22.11%
- Contraction (%) of HTF collagen I gels, Group 4 ([7]; Day 4): 28.11%
- Contraction (%) of HTF collagen I gels, Average ([7]; Day 5): 25.375%
- Contraction (%) of HTF collagen I gels, Group 1 ([7]; Day 5): 23.36%
- Contraction (%) of HTF collagen I gels, Group 2 ([7]; Day 5): 25.33%
- Contraction (%) of HTF collagen I gels, Group 3 ([7]; Day 5): 22.96%
- Contraction (%) of HTF collagen I gels, Group 4 ([7]; Day 5): 29.85%
- Contraction (%) of HTF collagen I gels, Average ([7]; Day 6): 27.6425%
- Contraction (%) of HTF collagen I gels, Group 1 ([7]; Day 6): 24.42%
- Contraction (%) of HTF collagen I gels, Group 2 ([7]; Day 6): 27.9%
- Contraction (%) of HTF collagen I gels, Group 3 ([7]; Day 6): 24.9%
- Contraction (%) of HTF collagen I gels, Group 4 ([7]; Day 6): 33.35%
- Contraction (%) of HTF collagen I gels, Average ([7]; Day 7): 28.2525%
- Contraction (%) of HTF collagen I gels, Group 1 ([7]; Day 7): 25.07%
- Contraction (%) of HTF collagen I gels, Group 2 ([7]; Day 7): 29%
- Contraction (%) of HTF collagen I gels, Group 3 ([7]; Day 7): 24.9%
- Contraction (%) of HTF collagen I gels, Group 4 ([7]; Day 7): 34.04%

SMILES: CNC(=O)[C@H](Cc1c[nH]c2ccccc12)NC(=O)[C@@H](CC(=O)NO)CC(C)C [IRRADIATED ILOMASTAT]
- Contraction (%) of HTF collagen I gels ([7]; DAY 0): 0%
- Contraction (%) of HTF collagen I gels ([7]; DAY 1): 12.51%
- Contraction (%) of HTF collagen I gels ([7]; DAY 2): 23.65%
- Contraction (%) of HTF collagen I gels ([7]; DAY 3): 28.44%
- Contraction (%) of HTF collagen I gels ([7]; DAY 4): 30.8%
- Contraction (%) of HTF collagen I gels ([7]; DAY 5): 32.23%
- Contraction (%) of HTF collagen I gels ([7]; DAY 6): 33.76%
- Contraction (%) of HTF collagen I gels ([7]; DAY 7): 36.12%
- trace products formed after irradiation, compared to total Ilomastat ([1]; 25 kGy gamma radiation, HPLC extra peak): 0.25%

SMILES: CNC(=O)[C@H](Cc1c[nH]c2ccccc12)NC(=O)[C@@H](CC(=O)NO)CC(C)C [NON IRRADIATED]
- Contraction (%) of HTF collagen I gels ([7]; DAY 0): 0%
- Contraction (%) of HTF collagen I gels ([7]; DAY 1): 11.96%
- Contraction (%) of HTF collagen I gels ([7]; DAY 2): 27.19%
- Contraction (%) of HTF collagen I gels ([7]; DAY 3): 32.97%
- Contraction (%) of HTF collagen I gels ([7]; DAY 4): 39.9%
- Contraction (%) of HTF collagen I gels ([7]; DAY 5): 41.66%
- Contraction (%) of HTF collagen I gels ([7]; DAY 6): 42.03%
- Contraction (%) of HTF collagen I gels ([7]; DAY 7): 43.19%

- release period ([4]; excipient-free 5-FU tablets A, B and C averaged): 25 h
SMILES: O=c1[nH]cc(F)c(=O)[nH]1 [5-FU]
- release kinetics ([4]; excipient-free tablets, FIGS. 9 to 13): essentially linear release of drug over a period of many hours
